# Measured values taken from patent US20080227797A1, “Pyridopyrimidine Derivatives as Pde4 Inhibitors for the Treatment of Inflammatory and Immune Diseases” (ASTRAZENECA AB, priority 2005, published 2008).
# Target: recombinant Human Phosphodiesterase B2 (PDE4B2) (Homo sapiens, UniProt Q07343)
# Assay: Human Phosphodiesterase B2 Alpha Screen Assay
# Assay type: biochemical
# Details: cAMP substrate, Alpha Screen cAMP kit, 60 minutes at room temperature
# Method: Human Phosphodiesterase B2 Alpha Screen Assay
# The assay uses recombinant Human Phosphodiesterase B2 (PDE4B2) produced in house (PrAZL0133), stored at −20° C. The substrate uses cAMP, part of the Alpha Screen cAMP kit (Perkin Elmer, Cat# 6760625M), stored at 4° C. The Alpha Screen kit also includes biotinylated cAMP, acceptor and donor beads.
# The assay additions were as follows: Test compounds and controls were added to white 384-well flat-bottom plates (Greiner, Cat# 781075), 0.2 μl in 100% DMSO, followed by 10 μl PDE4B2 in reaction buffer. The reaction buffer constitution was: 50 mM Tris (pH 7.5), 8.3 mM MgCl2, 1.7 mM EGTA and 0.01% (w/v) Brij®35. The enzyme and the compounds were incubated at room temperature for 15 minutes. Then 10 μl cAMP in reaction buffer was added. The assay was stopped after 60 minutes incubation at room temperature by adding 10 μl acceptor beads in detection buffer with 40 mM EDTA. The detection buffer constitution was: 5 mM Tris (pH 7.5), 0.1% (w/v) BSA and 0.1% (v/v) Tween 20. This addition followed by an addition of 10 μl donor beads in detection buffer, with biotinylated cAMP. The plates were then incubated, dark at room temperature, for 5 hours followed by measurement on a Fusion™-α analyser. IC50 values (presented in Table 1) were determined using Xlfit curve fitting using model 205.
# Sequence of recombinant Human Phosphodiesterase B2 (PDE4B2) (Q07343 1-564 isoform Q07343-2): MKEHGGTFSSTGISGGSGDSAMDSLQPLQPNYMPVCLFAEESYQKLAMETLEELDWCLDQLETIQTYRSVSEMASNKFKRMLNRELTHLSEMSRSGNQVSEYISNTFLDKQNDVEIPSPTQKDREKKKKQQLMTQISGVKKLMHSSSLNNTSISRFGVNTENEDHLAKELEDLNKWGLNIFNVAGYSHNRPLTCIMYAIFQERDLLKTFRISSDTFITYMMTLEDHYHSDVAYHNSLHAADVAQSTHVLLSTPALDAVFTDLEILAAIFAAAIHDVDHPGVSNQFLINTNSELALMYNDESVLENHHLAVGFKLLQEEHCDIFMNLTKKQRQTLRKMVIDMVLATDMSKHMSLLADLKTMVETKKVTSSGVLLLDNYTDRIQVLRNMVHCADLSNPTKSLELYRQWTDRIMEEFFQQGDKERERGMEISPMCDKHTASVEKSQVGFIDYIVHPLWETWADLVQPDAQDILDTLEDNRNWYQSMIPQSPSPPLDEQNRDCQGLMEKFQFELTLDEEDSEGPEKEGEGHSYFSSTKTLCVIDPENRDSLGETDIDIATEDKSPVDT
row,IC50 [nM],SMILES
1,14.5,"COC(=O)c1cccc(-n2c(=O)n([C@H]3CC[C@@H](NC(=O)[C@@H]4CCCN4C)CC3)c(=O)c3cc(F)cnc32)c1 [Example 49, Methyl 3-[6-fluoro-3-{cis-4-[(1-methyl-L-prolyl)amino]cyclohexyl}-2,4-dioxo-3,4-dihydropyrido[2,3-d]pyrimidin-1(2H)-yl]benzoate]"
2,2.1,"COC(=O)c1ccc(C(=O)N[C@H]2CC[C@@H](n3c(=O)c4cc(F)cnc4n(-c4ccc(F)c(F)c4)c3=O)CC2)cn1 [Example 50, methyl 5-[({cis-4-[1-(3,4-difluorophenyl)-6-fluoro-2,4-dioxo-1,4-dihydropyrido[2,3-d]pyrimidin-3(2H)-yl]cyclohexyl}amino)carbonyl]pyridine-2-carboxylate]"
3,5.2,"O=C(N[C@H]1CC[C@@H](n2c(=O)c3cc(F)cnc3n(-c3ccc(F)c(F)c3)c2=O)CC1)c1ccc(F)cc1O [Example 51, N-{cis-4-[1-(3,4-difluorophenyl)-6-fluoro-2,4-dioxo-1,4-dihydropyrido[2,3-d]pyrimidin-3(2H)-yl]cyclohexyl}-4-fluoro-2-hydroxybenzamide]"
4,18.6,"O=C(N[C@H]1CC[C@@H](n2c(=O)c3cc(F)cnc3n(-c3ccc(F)c(F)c3)c2=O)CC1)C1(O)CC1 [Example 52, N-{cis-4-[1-(3,4-difluorophenyl)-6-fluoro-2,4-dioxo-1,4-dihydropyrido[2,3-d]pyrimidin-3(2H)-yl]cyclohexyl}-1-hydroxycyclopropanecarboxamide]"
5,0.4,"O=C(N[C@H]1CC[C@@H](n2c(=O)c3cc(F)cnc3n(-c3ccc(F)c(F)c3)c2=O)CC1)c1cccc2cccnc12 [Example 53, N-{cis-4-[1-(3,4-difluorophenyl)-6-fluoro-2,4-dioxo-1,4-dihydropyrido[2,3-d]pyrimidin-3(2H)-yl]cyclohexyl}quinoline-8-carboxamide]"
6,3.9,"CSc1cccc(-n2c(=O)n([C@H]3CC[C@@H](NC(=O)c4ccco4)CC3)c(=O)c3cc(F)cnc32)c1 [Example 54, N-{cis-4-[6-fluoro-1-[3-(methylthio)phenyl]-2,4-dioxo-1,4-dihydropyrido[2,3-d]pyrimidin-3(2H)-yl]cyclohexyl}-2-furamide]"
7,2.6,"CSc1cccc(-n2c(=O)n([C@H]3CC[C@@H](NC(=O)C4CC4)CC3)c(=O)c3cc(F)cnc32)c1 [Example 55, N-{cis-4-[6-fluoro-1-[3-(methylthio)phenyl]-2,4-dioxo-1,4-dihydropyrido[2,3-d]pyrimidin-3(2H)-yl]cyclohexyl}cyclopropanecarboxamide]"
8,7.2,"CCC(=O)N[C@H]1CC[C@@H](n2c(=O)c3cc(F)cnc3n(-c3cccc(SC)c3)c2=O)CC1 [Example 56, N-{cis-4-[6-fluoro-1-[3-(methylthio)phenyl]-2,4-dioxo-1,4-dihydropyrido[2,3-d]pyrimidin-3(2H)-yl]cyclohexyl}propanamide]"
9,4.2,"CSc1cccc(-n2c(=O)n([C@H]3CC[C@@H](NC(=O)c4ccccc4)CC3)c(=O)c3cc(F)cnc32)c1 [Example 57, N-{cis-4-[6-fluoro-1-[3-(methylthio)phenyl]-2,4-dioxo-1,4-dihydropyrido[2,3-d]pyrimidin-3(2H)-yl]cyclohexyl}benzamide]"
10,3.9,"CSc1cccc(-n2c(=O)n([C@H]3CC[C@@H](NC(=O)C4CCCC4)CC3)c(=O)c3cc(F)cnc32)c1 [Example 58, N-{cis-4-[6-fluoro-1-[3-(methylthio)phenyl]-2,4-dioxo-1,4-dihydropyrido[2,3-d]pyrimidin-3(2H)-yl]cyclohexyl}cyclopentanecarboxamide]"
11,14.9,"CSc1cccc(-n2c(=O)n([C@H]3CC[C@@H](NC(=O)C(C)(C)O)CC3)c(=O)c3cc(F)cnc32)c1 [Example 59, N-{cis-4-[6-fluoro-1-[3-(methylthio)phenyl]-2,4-dioxo-1,4-dihydropyrido[2,3-d]pyrimidin-3(2H)-yl]cyclohexyl}-2-hydroxy-2-methylpropanamide]"
12,32.4,"CSc1cccc(-n2c(=O)n([C@H]3CC[C@@H](NS(=O)(=O)c4ccccc4)CC3)c(=O)c3cc(F)cnc32)c1 [Example 60, N-{cis-4-[6-fluoro-1-[3-(methylthio)phenyl]-2,4-dioxo-1,4-dihydropyrido[2,3-d]pyrimidin-3(2H)-yl]cyclohexyl}benzenesulfonamide]"
13,5.2,"COC(=O)c1cccc(-n2c(=O)n([C@H]3CC[C@@H](NC(=O)C4CCC4)CC3)c(=O)c3cc(F)cnc32)c1 [Example 61, methyl 3-[3-{cis-4-[(cyclobutylcarbonyl)amino]cyclohexyl}-6-fluoro-2,4-dioxo-3,4-dihydropyrido[2,3-d]pyrimidin-1(2H)-yl]benzoate]"
14,6.3,"COC(=O)c1cccc(-n2c(=O)n([C@H]3CC[C@@H](NC(=O)C(C)C)CC3)c(=O)c3cc(F)cnc32)c1 [Example 62, methyl 3-[6-fluoro-3-[cis-4-(isobutyrylamino)cyclohexyl]-2,4-dioxo-3,4-dihydropyrido[2,3-d]pyrimidin-1(2H)-yl]benzoate]"
15,5.7,"COC(=O)c1cccc(-n2c(=O)n([C@H]3CC[C@@H](NC(=O)CC(C)C)CC3)c(=O)c3cc(F)cnc32)c1 [Example 63, methyl 3-[6-fluoro-3-{cis-4-[(3-methylbutanoyl)amino]cyclohexyl}-2,4-dioxo-3,4-dihydropyrido[2,3-d]pyrimidin-1(2H)-yl]benzoate]"
16,4.4,"COC(=O)c1cccc(-n2c(=O)n([C@H]3CC[C@@H](NC(=O)C(C)(C)C)CC3)c(=O)c3cc(F)cnc32)c1 [Example 64, methyl 3-[3-{cis-4-[(2,2-dimethylpropanoyl)amino]cyclohexyl}-6-fluoro-2,4-dioxo-3,4-dihydropyrido[2,3-d]pyrimidin-1(2H)-yl]benzoate]"
17,11.1,"COCC(=O)N[C@H]1CC[C@@H](n2c(=O)c3cc(F)cnc3n(-c3cccc(C(=O)OC)c3)c2=O)CC1 [Example 65, methyl 3-[6-fluoro-3-{cis-4-[(methoxyacetyl)amino]cyclohexyl}-2,4-dioxo-3,4-dihydropyrido[2,3-d]pyrimidin-1(2H)-yl]benzoate]"
18,4.8,"COC(=O)c1cccc(-n2c(=O)n([C@H]3CC[C@@H](NC(=O)c4cccs4)CC3)c(=O)c3cc(F)cnc32)c1 [Example 66, methyl 3-[6-fluoro-2,4-dioxo-3-{cis-4-[(2-thienylcarbonyl)amino]cyclohexyl}-3,4-dihydropyrido[2,3-d]pyrimidin-1(2H)-yl]benzoate]"
19,21.2,"COC(=O)c1cccc(-n2c(=O)n([C@H]3CC[C@@H](NC(C)=O)CC3)c(=O)c3cc(F)cnc32)c1 [Example 67, methyl 3-[3-[cis-4-(acetylamino)cyclohexyl]-6-fluoro-2,4-dioxo-3,4-dihydropyrido[2,3-d]pyrimidin-1(2H)-yl]benzoate]"
20,0.6,"COC(=O)c1cccc(-n2c(=O)n([C@H]3CC[C@@H](NC(=O)c4cc5ccccn5n4)CC3)c(=O)c3cc(F)cnc32)c1 [Example 68, methyl 3-[6-fluoro-2,4-dioxo-3-{cis-4-[(pyrazolo[1,5-a]pyridin-2-ylcarbonyl)amino]cyclohexyl}-3,4-dihydropyrido[2,3-d]pyrimidin-1(2H)-yl]benzoate]"
21,1,"COC(=O)c1cccc(-n2c(=O)n([C@H]3CC[C@@H](NC(=O)c4cn5ccccc5n4)CC3)c(=O)c3cc(F)cnc32)c1 [Example 69, methyl 3-[6-fluoro-3-{cis-4-[(imidazo[1,2-a]pyridin-2-ylcarbonyl)amino]cyclohexyl}-2,4-dioxo-3,4-dihydropyrido[2,3-d]pyrimidin-1(2H)-yl]benzoate]"
22,6.6,"COC(=O)c1cccc(-n2c(=O)n([C@H]3CC[C@@H](NC(=O)C4CC4)CC3)c(=O)c3cc(F)cnc32)c1 [Example 70, methyl 3-[3-{cis-4-[(cyclopropylcarbonyl)amino]cyclohexyl}-6-fluoro-2,4-dioxo-3,4-dihydropyrido[2,3-d]pyrimidin-1(2H)-yl]benzoate]"
23,41.2,"CS(=O)(=O)c1cccc(-n2c(=O)n([C@H]3CC[C@@H](NC(=O)C4CC4)CC3)c(=O)c3cc(F)cnc32)c1 [Example 71, N-{cis-4-[6-fluoro-1-[3-(methylsulfonyl)phenyl]-2,4-dioxo-1,4-dihydropyrido[2,3-d]pyrimidin-3(2H)-yl]cyclohexyl}cyclopropanecarboxamide]"
24,2.3,"Cc1ccc(O)c(C(=O)N[C@H]2CC[C@@H](n3c(=O)c4cc(F)cnc4n(-c4ccc(F)c(F)c4)c3=O)CC2)c1 [Example 72, N-{cis-4-[1-(3,4-difluorophenyl)-6-fluoro-2,4-dioxo-1,4-dihydropyrido[2,3-d]pyrimidin-3(2H)-yl]cyclohexyl}-2-hydroxy-5-methylbenzamide]"
25,62.6,"COC(=O)c1cccc(-n2c(=O)n([C@H]3CC[C@@H](NC(=O)C4CCN(C)CC4)CC3)c(=O)c3cc(F)cnc32)c1 [Example 73, methyl 3-[6-fluoro-3-(cis-4-{[(1-methylpiperidin-4-yl)carbonyl]amino}cyclohexyl)-2,4-dioxo-3,4-dihydropyrido[2,3-d]pyrimidin-1(2H)-yl]benzoate]"
